# Source: PMC6934184, “Selective DNA-PKcs inhibition extends the therapeutic index of localized radiotherapy and chemotherapy” (The Journal of Clinical Investigation, 2019)
# Target: T1, ACVR2B (Homo sapiens, UniProt Q13705)
# T1 construct: purchased Thermo Fisher Scientific (Life Technologies) SelectScreen
# Assay: SelectScreen LanthaScreen
# Type: binding
# Details: 1 µM
# In short: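 Percent values come from Thermo SelectScreen profiling of NU5455, combining activity and binding assays. CSF1R was run in Z'LYTE format at Km app ATP, and CAMK1 in Adapta format with ATP listed at 10.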
# T1 sequence (Q13705 19-512): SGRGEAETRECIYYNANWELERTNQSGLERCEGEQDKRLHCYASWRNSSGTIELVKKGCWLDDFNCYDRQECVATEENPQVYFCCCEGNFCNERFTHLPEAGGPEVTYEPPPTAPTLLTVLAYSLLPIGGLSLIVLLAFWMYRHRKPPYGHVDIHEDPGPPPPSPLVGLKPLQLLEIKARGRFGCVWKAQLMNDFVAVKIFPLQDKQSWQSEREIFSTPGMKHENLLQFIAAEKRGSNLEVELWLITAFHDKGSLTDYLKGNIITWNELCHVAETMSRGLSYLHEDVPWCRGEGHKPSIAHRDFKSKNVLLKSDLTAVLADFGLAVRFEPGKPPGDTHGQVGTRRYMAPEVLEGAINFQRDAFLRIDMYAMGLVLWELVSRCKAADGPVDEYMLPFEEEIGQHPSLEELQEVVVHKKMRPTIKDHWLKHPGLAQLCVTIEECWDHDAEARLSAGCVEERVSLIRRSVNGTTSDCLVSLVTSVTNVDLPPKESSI
smiles,measurement,value
CN(C(=O)CN1CCOCC1)c1ccc2sc3c(-c4cccc5c(=O)cc(N6CC7CCC(C6)O7)oc45)cccc3c2c1 [NU5455],% displacement,15.7%
